Experimental findings from ChEMBL document CHEMBL1128961 (Bioorg Med Chem Lett, 1996) are described below.

For one assay, the target named is T1, Acetylcholinesterase (Bos taurus, UniProt P23795).
T1 sequence (P23795 whole entry): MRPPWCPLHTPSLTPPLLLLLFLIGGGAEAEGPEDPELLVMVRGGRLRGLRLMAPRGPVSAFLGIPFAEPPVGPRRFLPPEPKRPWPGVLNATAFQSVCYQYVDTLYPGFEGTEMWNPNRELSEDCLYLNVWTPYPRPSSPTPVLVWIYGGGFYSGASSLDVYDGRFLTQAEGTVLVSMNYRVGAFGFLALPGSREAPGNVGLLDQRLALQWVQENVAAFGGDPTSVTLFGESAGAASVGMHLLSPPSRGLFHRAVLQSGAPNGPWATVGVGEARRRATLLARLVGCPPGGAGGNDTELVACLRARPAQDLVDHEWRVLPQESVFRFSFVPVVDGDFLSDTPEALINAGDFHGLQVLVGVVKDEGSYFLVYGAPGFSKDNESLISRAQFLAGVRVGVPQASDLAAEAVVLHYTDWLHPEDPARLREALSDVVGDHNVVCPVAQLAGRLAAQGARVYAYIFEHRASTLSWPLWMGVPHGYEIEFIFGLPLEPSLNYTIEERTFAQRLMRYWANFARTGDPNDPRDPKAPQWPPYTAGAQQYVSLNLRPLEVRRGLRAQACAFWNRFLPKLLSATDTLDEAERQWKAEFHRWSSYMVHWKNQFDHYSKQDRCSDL
Nature of the assay: Dissociation constant for the inhibition of fetal bovine serum acetylcholinesterase was determined..
In turn, `C/C=C1\C2C=C(C)C[C@]1(N)c1ccc(O)nc1C2(C)C` (mixture of isomers) came in with a Ki of 16.7 nM.

As for `C/C=C1\[C@H]2C=C(C)C[C@]1(N)c1ccc(=O)[nH]c1C2` (stereo in doubt; form 1) [HUPERZINE A], the affinity, expressed as Ki, was 23.6 nM.

Regarding `C/C=C1\[C@H]2C=C(C)C[C@]1(N)c1ccc(=O)[nH]c1C2` (stereo in doubt; form 2) [HUPERZINE A], the Ki came to 5.9 nM. Compared with the last molecule, the Ki is about 4-fold lower.

The next assay concerns the target T2, Acetylcholinesterase (Bos taurus) (UniProt P23795).
T2 sequence (whole entry): T1 sequence (P23795 whole entry)
Description: Kinetic constant for inhibition of fetal bovine serum acetylcholinesterase
In the case of `C/C=C1\C2C=C(C)C[C@]1(N)c1ccc(O)nc1C2(C)C` (mixture of isomers), the k off came out at 0.000217 s⁻¹.

`C/C=C1\[C@H]2C=C(C)C[C@]1(N)c1ccc(=O)[nH]c1C2` (stereo in doubt; form 1) returned a k off of 0.000367 s⁻¹.

`C/C=C1\[C@H]2C=C(C)C[C@]1(N)c1ccc(=O)[nH]c1C2` (stereo in doubt; form 2): the k off came to 0.000334 s⁻¹.

As usually defined, the Ki is a measure of affinity in units of concentration, obtained from inhibition or displacement. A high value points to lower affinity.
